The results in this text go back to patent publication US20230203098A1, “HUMAN TRANSFERRIN RECEPTOR BINDING PEPTIDE” (priority 2020, published 2023).

The assay has as its target transferrin receptor (hTfR) (Homo sapiens, UniProt P02786). Briefly: Intermolecular interaction evaluation test between transferrin receptor (hTfR) and peptide by surface plasmon resonance (SPR). It is filed as binding. A digest of the protocol: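 Receptor was Ni-captured and EDC/NHS-fixed on an NTA chip; running buffer HEPES pH 8.0 with NaCl, Tween 20, BSA and 1.0% DMSO.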
In general terms: Surface plasmon resonance follows binding to a sensor surface in real time, without labels.

Where [1] appears, read: surface plasmon resonance, peptide vs hTfR, read-out: KD value, hTfR binding by SPR (class symbol).
The mark [2] stands for this setting: SPR, hTfR No. 894 variants with PEG12c linker (Table 2), read-out: KD.
The mark [3] stands for this setting: surface plasmon resonance, peptide vs hTfR, read-out: KD value for hTfR by SPR (class symbol).
The mark [4] stands for this setting: SPR, linker and payload (FITC, VivoTag) conjugates, read-out: KD.

Each structure is given as a SMILES string. Like-named read-outs stand apart in the source and are kept apart here. Where a SMILES comes first, the peptide text is derived from it. Bridges are numbered along the chain shown (N, C = ends). [ ]: non-standard residue; d: D form. The star is where a group is joined. X2 = O=C(O)c1cc(C(=O)*)ccc1-c1c2ccc(=O)cc-2oc2cc(O)ccc12; PEG12 = NCCOCCOCCOCCOCCOCCOCCOCCOCCOCCOCCOCCOCCC(=O)O; Phe(3,4-(OMe)2) = COc1ccc(C[C@H](N)C(=O)O)cc1OC; NMePhe(3-Cl) = CN[C@@H](Cc1cccc(Cl)c1)C(=O)O; NMeW = CN[C@@H](Cc1c[nH]c2ccccc12)C(=O)O; NMeY = CN[C@@H](Cc1ccc(O)cc1)C(=O)O; NMeF = CN[C@@H](Cc1ccccc1)C(=O)O; PEG4 = NCCOCCOCCOCCOCCC(=O)O; Aib = CC(C)(N)C(=O)O A value given as a limit tells only on which side of the number the result lay.

Sequence of transferrin receptor (hTfR) (P02786 whole entry): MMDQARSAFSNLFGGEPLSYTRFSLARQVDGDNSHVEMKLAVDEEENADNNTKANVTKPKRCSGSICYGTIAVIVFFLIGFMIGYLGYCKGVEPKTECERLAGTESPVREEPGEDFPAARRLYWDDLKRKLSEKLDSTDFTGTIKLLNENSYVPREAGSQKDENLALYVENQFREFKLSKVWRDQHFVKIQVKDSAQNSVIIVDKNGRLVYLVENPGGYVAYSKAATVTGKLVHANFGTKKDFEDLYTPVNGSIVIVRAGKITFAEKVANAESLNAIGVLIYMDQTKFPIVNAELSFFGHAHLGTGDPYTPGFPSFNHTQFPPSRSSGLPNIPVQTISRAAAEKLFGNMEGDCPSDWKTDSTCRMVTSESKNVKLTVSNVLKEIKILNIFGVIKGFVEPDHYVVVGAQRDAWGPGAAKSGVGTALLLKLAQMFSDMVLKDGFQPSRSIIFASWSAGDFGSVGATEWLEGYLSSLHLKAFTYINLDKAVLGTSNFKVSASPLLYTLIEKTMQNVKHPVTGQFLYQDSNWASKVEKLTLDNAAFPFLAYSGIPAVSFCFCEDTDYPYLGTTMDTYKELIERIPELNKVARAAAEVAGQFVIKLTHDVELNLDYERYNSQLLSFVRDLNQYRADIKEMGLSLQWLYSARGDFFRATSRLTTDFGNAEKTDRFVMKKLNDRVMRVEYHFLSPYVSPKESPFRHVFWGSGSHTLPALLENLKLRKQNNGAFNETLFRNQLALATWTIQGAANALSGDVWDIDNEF

Turning to `CC[C@H](C)[C@@H]1NC(=O)[C@H](Cc2ccc(O)cc2)NC(=O)[C@H](Cc2ccc(O)cc2)NC(=O)[C@H](CC(N)=O)NC(=O)[C@H](Cc2c[nH]c3ccccc23)NC(=O)[C@H](C(C)C)NC(=O)[C@H](Cc2ccccc2)N(C)C(=O)[C@H](C(C)C)NC(=O)[C@H](C)NC(=O)CSC[C@@H](C(=O)NCC(=O)N[C@@H](CCCCN)C(N)=O)NC(=O)[C@H](Cc2ccc(O)cc2)N(C)C(=O)[C@H](Cc2ccc(O)cc2)NC(=O)[C@H](CCCNC(=N)N)NC(=O)[C@H](CCCNC(=N)N)NC(=O)[C@H]([C@@H](C)CC)NC1=O` [compound 525], under “SPR, hTfR, class symbols A-D, read-out: KD (column without head, continuation of the table series)”, the Kd – broadly, a measure of binding affinity in units of concentration – lay in the range of 1 to 100 nM.

Take `CC[C@H](C)[C@@H]1NC(=O)[C@H](Cc2ccc(O)cc2)NC(=O)[C@H](Cc2ccc(O)cc2)NC(=O)[C@H](CC(N)=O)NC(=O)[C@H](Cc2c[nH]c3ccccc23)N(C)C(=O)[C@H](C(C)C)NC(=O)[C@H](Cc2cccc(Cl)c2)N(C)C(=O)[C@@H]2CCCC(=O)NCCCC[C@H](NC(=O)[C@H]([C@@H](C)CC)NC1=O)C(=O)N[C@@H](CCCNC(=N)N)C(=O)N[C@@H](Cc1ccc(O)cc1)C(=O)N(C)[C@@H](Cc1ccc(O)cc1)C(=O)N[C@H](C(N)=O)CSCC(=O)N[C@@H](C)C(=O)N2` [compound 409]: where the note is “surface plasmon resonance, hTfR, read-out: KD value for hTfR by SPR (class symbol)”, the Kd was 1 to 100 nM.

In the case of `CC[C@H](C)[C@@H]1NC(=O)[C@H](Cc2ccc(O)cc2)NC(=O)[C@H](Cc2ccc(O)cc2)NC(=O)[C@H](CC(N)=O)NC(=O)[C@H](Cc2cn(CCO)c3ccccc23)NC(=O)[C@H](C(C)C)NC(=O)[C@H](Cc2ccccc2)N(C)C(=O)[C@H](C(C)C)NC(=O)[C@H](C)NC(=O)CSC[C@@H](C(N)=O)NC(=O)[C@H](Cc2ccc(O)cc2)N(C)C(=O)[C@H](Cc2ccc(O)cc2)NC(=O)[C@H](CCCNC(=N)N)NC(=O)[C@H](CCCNC(=N)N)NC(=O)[C@H]([C@@H](C)CC)NC1=O` [compound 271], under “binding to hTfR by SPR, Table 2 peptides, read-out: KD value (SPR) class”, the Kd fell in the range of 1 to 100 nM.

For `CC[C@H](C)[C@@H]1NC(=O)[C@H](Cc2ccc(OC)c(OC)c2)NC(=O)[C@H](Cc2ccc(O)cc2)NC(=O)[C@H](CC(N)=O)NC(=O)[C@H](Cc2c[nH]c3ccccc23)N(C)C(=O)[C@H](C(C)C)NC(=O)[C@H](Cc2cccc(Cl)c2)N(C)C(=O)[C@H](C(C)C)NC(=O)[C@H](C)NC(=O)CSC[C@@H](C(N)=O)NC(=O)[C@H](Cc2ccc(O)cc2)N(C)C(=O)[C@H](Cc2ccccc2)NC(=O)[C@@H](CCCNC(=N)N)NC(=O)[C@H](CCCNC(=N)N)NC(=O)[C@H]([C@@H](C)CC)NC1=O` [compound 318] ({CH2CO}-AV[NMePhe(3-Cl)]V[NMeW]NY[Phe(3,4-(OMe)2)]IIR[dR]F[NMeY]C-NH2; thioether N-15), under setting [1], the Kd was in the range of 1 to 100 nM.

Regarding `CC[C@H](C)[C@@H]1NC(=O)[C@H](Cc2ccc(OC)cc2)NC(=O)[C@H](Cc2ccc(O)cc2)NC(=O)[C@H](CC(N)=O)NC(=O)[C@H](Cc2c[nH]c3ccccc23)NC(=O)[C@H](C(C)C)NC(=O)[C@H](Cc2cccc(Cl)c2)N(C)C(=O)[C@H](C(C)C)NC(=O)[C@H](C)NC(=O)CSC[C@@H](C(=O)NCCOCCOCCOCCOCCC(N)=O)NC(=O)[C@H](Cc2ccc(O)cc2)N(C)C(=O)[C@H](Cc2ccccc2)NC(=O)[C@@H](CCCNC(=N)N)NC(=O)C(C)(C)NC(=O)[C@H]([C@@H](C)CC)NC1=O` [compound 310] ({CH2CO}-AV[NMePhe(3-Cl)]VWNYY(Me)II[Aib][dR]F[NMeY]C[PEG4]-NH2; thioether N-15), the Kd under setting [1] was above 1000 nM.

As to `CC[C@H](C)[C@@H]1NC(=O)[C@H](Cc2ccc(OCCN)cc2)NC(=O)[C@H](Cc2ccc(O)cc2)NC(=O)[C@H](CC(N)=O)NC(=O)[C@H](Cc2c[nH]c3ccccc23)N(C)C(=O)[C@H](C(C)C)NC(=O)[C@H](Cc2cccc(Cl)c2)N(C)C(=O)[C@H](C(C)C)NC(=O)[C@H](C)NC(=O)CSC[C@@H](C(N)=O)NC(=O)[C@H](Cc2ccc(O)cc2)N(C)C(=O)[C@H](Cc2ccccc2)NC(=O)[C@@H](CCCNC(=N)N)NC(=O)[C@H](CCCNC(=N)N)NC(=O)[C@H]([C@@H](C)CC)NC1=O` [compound 321], the Kd under setting [1] fell in the range of 1 to 100 nM.

For the compound `CC[C@H](C)[C@@H]1NC(=O)[C@H](Cc2ccc(O)cc2)NC(=O)[C@H](Cc2ccc(O)cc2)NC(=O)[C@H](CC(N)=O)NC(=O)[C@H](Cc2cn(CC(=O)O)c3ccccc23)NC(=O)[C@H](C(C)C)NC(=O)[C@H](Cc2ccccc2)N(C)C(=O)[C@H](C(C)C)NC(=O)[C@H](C)NC(=O)CSC[C@@H](C(N)=O)NC(=O)[C@H](Cc2ccc(O)cc2)N(C)C(=O)[C@H](Cc2ccc(O)cc2)NC(=O)[C@H](CCCNC(=N)N)NC(=O)C(C)(C)NC(=O)[C@H]([C@@H](C)CC)NC1=O` [compound 469], the Kd (SPR, hTfR, class symbols A-D, read-out: KD) was 1 to 100 nM.

Take `CC[C@H](C)[C@@H]1NC(=O)[C@H](Cc2ccc(O)cc2)NC(=O)[C@H](Cc2ccc(O)cc2)NC(=O)[C@H](CC(N)=O)NC(=O)[C@H](Cc2c[nH]c3ccccc23)NC(=O)[C@H](C(C)C)NC(=O)[C@H](Cc2ccccc2)N(C)C(=O)[C@H](C(C)C)NC(=O)[C@H](C)NC(=O)CSC[C@@H](C(=O)NCCOCCOCCOCCOCCOCCOCCOCCOCCOCCOCCOCCOCCC(N)=O)NC(=O)[C@H](C)NC(=O)[C@H](Cc2ccc(O)cc2)NC(=O)[C@H](CCCNC(=N)N)NC(=O)[C@H](CCCNC(=N)N)NC(=O)[C@H]([C@@H](C)CC)NC1=O` [compound 117] ({CH2CO}-AV[NMeF]VWNYYIIRRYAC[PEG12]-NH2; thioether N-15): under setting [2], the Kd lay in the range of 1 to 100 nM.

Take `CC[C@H](C)[C@@H]1NC(=O)[C@H](Cc2ccc(O)cc2)NC(=O)[C@H](Cc2ccc(O)cc2)NC(=O)[C@H](CC(N)=O)NC(=O)[C@H](Cc2ccc(OC)cc2)NC(=O)[C@H](C(C)C)NC(=O)[C@H](Cc2ccccc2)N(C)C(=O)[C@H](C(C)C)NC(=O)[C@H](C)NC(=O)CSC[C@@H](C(=O)NCCOCCOCCOCCOCCOCCOCCOCCOCCOCCOCCOCCOCCC(N)=O)NC(=O)[C@H](Cc2ccc(O)cc2)N(C)C(=O)[C@H](Cc2ccc(O)cc2)NC(=O)[C@H](CCCNC(=N)N)NC(=O)[C@H](CCCNC(=N)N)NC(=O)[C@H]([C@@H](C)CC)NC1=O` [compound 118] ({CH2CO}-AV[NMeF]VY(Me)NYYIIRRY[NMeY]C[PEG12]-NH2; thioether N-15): under setting [2], the Kd fell in the range of 1 to 100 nM.

Consider `CC[C@H](C)[C@@H]1NC(=O)[C@H](Cc2ccc(O)cc2)NC(=O)[C@H](Cc2ccc(O)cc2)NC(=O)[C@H](CC(N)=O)NC(=O)[C@H](Cc2c[nH]c3ccccc23)N(C)C(=O)[C@H](C(C)C)NC(=O)[C@H](Cc2cccc(Cl)c2)N(C)C(=O)[C@@H]2CCC(=O)NCCCC[C@H](NC(=O)[C@H]([C@@H](C)CC)NC1=O)C(=O)N[C@@H](CCCNC(=N)N)C(=O)N[C@@H](Cc1ccc(O)cc1)C(=O)N(C)[C@@H](Cc1ccc(O)cc1)C(=O)N[C@H](C(N)=O)CSCC(=O)N[C@@H](C)C(=O)N2` [compound 412], for which the Kd under setting [3] is 1 to 100 nM.

As for `CC[C@H](C)[C@@H]1NC(=O)[C@@H]2CCCCNC(=O)[C@H]3CCCN3C(=O)CC[C@H](NC(=O)[C@H](C(C)C)NC(=O)[C@H](C)NC(=O)CSC[C@@H](C(N)=O)NC(=O)[C@H](Cc3ccc(O)cc3)N(C)C(=O)[C@H](Cc3ccc(O)cc3)NC(=O)[C@H](CCCNC(=N)N)NC(=O)[C@H](CCCNC(=N)N)NC(=O)[C@H]([C@@H](C)CC)NC1=O)C(=O)N[C@@H](C(C)C)C(=O)N(C)[C@@H](Cc1c[nH]c3ccccc13)C(=O)N[C@@H](CC(N)=O)C(=O)N[C@@H](Cc1ccc(O)cc1)C(=O)N2` [compound 413] ({CH2CO}-AVEV[NMeW]NYKIIRRY[NMeY]C-NH2; linker 3-8 via dP; thioether N-15), the Kd under setting [3] lay in the range of 100 to 1000 nM.

Take `CC[C@H](C)[C@@H]1NC(=O)[C@H](Cc2ccc(O)cc2)NC(=O)[C@H](Cc2ccc(O)cc2)NC(=O)[C@H](CC(N)=O)NC(=O)[C@H](Cc2c[nH]c3ccccc23)NC(=O)[C@H](C(C)C)NC(=O)[C@H](Cc2ccccc2)N(C)C(=O)[C@H](C(C)C)NC(=O)[C@H](C)NC(=O)CSC[C@@H](C(=O)NCCOCCOCCOCCOCCC(=O)N[C@@H](CNC(=O)c2ccc(-c3c4ccc(=O)cc-4oc4cc(O)ccc34)c(C(=O)O)c2)C(N)=O)NC(=O)[C@H](Cc2ccc(O)cc2)N(C)C(=O)[C@H](Cc2ccc(O)cc2)NC(=O)[C@H](CCCNC(=N)N)NC(=O)[C@H](CCCNC(=N)N)NC(=O)[C@H]([C@@H](C)CC)NC1=O` [compound 162]: the Kd under setting [4] was in the range of 1 to 100 nM.

On to `CC[C@H](C)[C@@H]1NC(=O)[C@H](Cc2ccc(O)cc2)NC(=O)[C@H](Cc2ccc(O)cc2)NC(=O)[C@H](CC(N)=O)NC(=O)[C@H](Cc2c[nH]c3ccccc23)NC(=O)[C@H](C(C)C)NC(=O)[C@H](Cc2ccccc2)NC(=O)[C@H](C(C)C)NC(=O)[C@H](C)NC(=O)CSC[C@@H](C(=O)NCCOCCOCCOCCOCCOCCOCCOCCOCCOCCOCCOCCOCCC(=O)N[C@@H](CCCCNC(=O)c2ccc(-c3c4ccc(=O)cc-4oc4cc(O)ccc34)c(C(=O)O)c2)C(N)=O)NC(=O)[C@H](Cc2ccc(O)cc2)N(C)C(=O)[C@H](CO)NC(=O)[C@H](CCCNC(=N)N)NC(=O)[C@H](Cc2ccccc2)NC(=O)[C@H](CCCNC(=N)N)NC(=O)[C@H](CC(=O)O)NC(=O)[C@H]([C@@H](C)CC)NC1=O` [compound 150] ({CH2CO}-AVFVWNYYIIDRFRS[NMeY]C[PEG12]K(X2)-NH2; thioether N-17), for which the Kd under setting [4] lay in the range of 1 to 100 nM.

As to `CC[C@H](C)[C@@H]1NC(=O)[C@H](Cc2ccc(O)cc2)NC(=O)[C@H](Cc2ccc(O)cc2)NC(=O)[C@H](CC(N)=O)NC(=O)[C@H](Cc2c[nH]c3ccccc23)NC(=O)[C@H](C(C)C)NC(=O)[C@H](Cc2ccccc2)N(C)C(=O)[C@H](C(C)C)NC(=O)[C@H](C)NC(=O)CSC[C@@H](C(=O)NCC(=O)NCC(=O)NCC(=O)NCC(=O)N[C@@H](CO)C(=O)N[C@@H](CO)C(=O)N[C@@H](CSCC(=O)NC)C(N)=O)NC(=O)[C@H](Cc2ccc(O)cc2)N(C)C(=O)[C@H](Cc2ccc(O)cc2)NC(=O)[C@H](CCCNC(=N)N)NC(=O)[C@H](CCCNC(=N)N)NC(=O)[C@H]([C@@H](C)CC)NC1=O` [compound 443], the Kd under setting [3] fell in the range of 1 to 100 nM.
